According to patent US20150216177A1, “METHOD FOR SELECTIVELY INHIBITING SULFATE-REDUCING BACTERIUM, GYPSUM COMPOSITION CAPABLE OF INHIBITING PROLIFERATION OF SULFATE-REDUCING BACTERIUM BY SAID METHOD, GYPSUM-TYPE SOLIDIFYING MATERIAL, AND GYPSUM-TYPE BUILDING MATERIAL” (priority 2012, published 2015):

Experiments:
Format in all cases: cell-based
[1] = test system: Sulfate-reducing bacterium: Desulfovibrio vulgaris DSM 644T
[2] = test system: Colon bacillus: Escherichia coli NBRC 102203T; assay: Proliferation-inhibiting (bacteriostatic) effect in Al-added culture medium, protein amount by BCA method; details: 2 mM or 20 mM Al solution in culture medium, anaerobic shaking culture 37° C.; FIG. 2 / FIG. 5
[3] = test system: Butyric acid bacterium: Clostridium butyricum NBRC 13949T; details: 2 mM or 20 mM Al solution in culture medium, anaerobic shaking culture 37° C.; FIG. 3 / FIG. 6

Row | Molecule | proliferation of the sulfate-reducing bacterium (increase in protein amount) [1] | proliferation of the colon bacillus (increase in protein amount) [2] | proliferation of the butyric acid bacterium (increase in protein amount) [3] | selective bacteriostatic effect (sulfate-reducing bacterium versus colon bacillus and butyric acid bacterium) [1]
1 | [Cl][Al]([Cl])[Cl] [Comparative Example 1, AlCl3, reference compound] | inhibited | inhibited | inhibited | –
2 | oxalic acid/Al chelate [Example 2] | – | – | – | same selective bacteriostatic effects as in Example 1 were also recognized
3 | citric acid/Al chelate [Example 1] | inhibited | not inhibited | not inhibited | selective bacteriostatic effect was recognized
4 | EDTA/Al chelate [Example 3] | – | – | – | same selective bacteriostatic effects as in Example 1 were also recognized
